Like-named read-outs stand apart in the source and are kept apart here.
Tested on: ATF6
Test: ERSE ATF6-luciferase reporter assay (thapsigargin-induced ER stress)
Assay type: cell-based, human
Description: Human bone osteosarcoma (U2-OS) cells were obtained from the American Type Culture Collection (ATCC HTB-96, ATCC Manassas, VA) and were cultured with growing medium containing Dulbecco's Modified Eagle's Medium (DMEM) (Cat. No.:SH30023.02, HyClone) supplemented with fetal bovine serum (FBS) 10% (Cat. No.: 16000044, Gibco) and 1% penicillin-streptomycin antibiotic cocktail (Cat. No.: SV30010, Hyclone).
Cignal Lenti ATF6 luc reporter (Qiagen #CLS-6031L) was used to produce a stable cell line in U2-OS cells. […] The number of response elements as well as the intervening sequence between response elements has been experimentally optimized to maximize the signal to noise ratio.
Compounds were prepared as 10 mM stock solutions and stored at −80° C.
U2-OS ATF6 luc reporter cells were thawed 3-4 days and split once prior to assays. […] At the day of experiment, cells were pre-treated for 30 min with 50 μL growing medium containing either vehicle (dimethyl sulfoxide (DMSO)) (Cat. No.: D2650, Sigma-Aldrich) or 1 μM test compound. After the pre-incubation time, 50 μL of a solution containing 0.2 μM thapsigargin (Tg)(an ER stress inducer) was added to respective wells. This Tg solution also contained vehicle or test compounds at 1 μM. The final concentration of DMSO in each well was kept at 0.3%. Plates were incubated for 8 hr in humidified chambers.
Finally, after 8 hr, plates were cooled to room temperature for 10 min prior to luciferase assays. Luciferase reactions were performed using Luciferase Assay System (Cat. No.: E4550, Promega). Briefly, each well was washed with 100 μl of PBS1X and then 20 μl of lysis reagent were added into each well. Plates were shaken for 10 min, then 50 μl of Luciferase Assay Reagent were added to each well and luminescence was read with an integration time of 1 s and a gain of 110 in a Synergy 4 Microplate reader.
For the assessment of the half-maximal inhibitory concentration (IC50) for selected compounds, dose-response assays were performed. Compounds were serially diluted using DMSO starting at 30 μM until 1 nM. The assays were run as described above.

[1] = Homo sapiens, U2OS, 8 h, 1 μM test compound, thapsigargin-induced ER stress, U2-OS ATF6 luc reporter cells, 8 hr, read-out: Inh. ATF6-Luc @ 1 μM [%]
[2] = Homo sapiens, U2OS, dose-response 30 μM to 1 nM, thapsigargin-induced ER stress, U2-OS ATF6 luc reporter cells, read-out: IC50 ATF6-Luc reporter
[3] = Homo sapiens, U2OS, 1 μM test compound, thapsigargin-induced ER stress, U2-OS ATF6 luc reporter cells, 8 hr, read-out: Inh. ATF6-Luc @ 1 μM [%]
[4] = 1 μM test compound, thapsigargin-induced ER stress, U2-OS ATF6 luc reporter cells, 8 hr
[5] = dose-response 30 μM to 1 nM, thapsigargin-induced ER stress, U2-OS ATF6 luc reporter cells, read-out: IC50 ATF6-Luc reporter

IC50 [2] [µM]	Compound	inhibition at 1 µM [1] [%]	other results
> 10	O=C(Nc1cnn(C2Cc3ccccc3C2)c1)c1cc(-c2ccco2)on1 [Compound 18, N-(1-(2,3-dihydro-1H-inden-2-yl)-1H-pyrazol-4-yl)-5-(furan-2-yl) isoxazole-3-carboxamide]	< 25	–
> 10	C[C@@H](c1ccc(C(F)(F)F)cc1C(F)(F)F)n1cc(NC(=O)c2cc(-c3cccnc3)on2)cn1 [Compound 37, (S)-N-(1-(1-(2,4-bis(trifluoromethyl)phenyl)ethyl)-1H-pyrazol-4-yl)-5-(pyridin-3-yl)isoxazole-3-carboxamide]	< 25	–
1 to 10	O=C(Nc1cnn(Cc2ccc(C(F)(F)F)cc2C(F)(F)F)c1)c1cnc(-c2ccccn2)s1 [Compound 118, N-(1-(2,4-bis(trifluoromethyl)benzyl)-1H-pyrazol-4-yl)-2-(pyridin-2-yl)thiazole-5-carboxamide]	< 25	–
> 10	CC(c1ccc(C(F)(F)F)cc1C(F)(F)F)n1cc(NC(=O)c2cc(-c3ncccc3Cl)on2)cn1 (stereo not shown) [Compound 32, N-(1-(1-(2,4-bis(trifluoromethyl)phenyl)ethyl)-1H-pyrazol-4-yl)-5-(3-chloropyridin-2-yl)isoxazole-3-carboxamide]	< 25	–
> 10	Cc1cccc(-c2cc(C(=O)Nc3cnn([C@@H](C)c4ccc(C(F)(F)F)cc4C(F)(F)F)c3)no2)n1 [Compound 117, (S)—N-(1-(1-(2,4-bis(trifluoromethyl)phenyl)ethyl)-1H-pyrazol-4-yl)-5-(6-methylpyridin-2-yl)isoxazole-3-carboxamide]	< 25	–
> 10	COc1ccccc1-c1cc(C(=O)Nc2cnn([C@@H](C)c3ccc(C(F)(F)F)cc3C(F)(F)F)c2)no1 [Compound 89, (S)N-(1-(1-(2,4-bis(trifluoromethyl)phenyl)ethyl)-1H-pyrazol-4-yl)-5-(2-methoxyphenyl)isoxazole-3-carboxamide]	< 25	–
> 10	O=C(Nc1cnn(Cc2c(Cl)cccc2Cl)c1)c1nnc(-c2ccccn2)s1 [Compound 145, N-(1-(2,6-dichlorobenzyl)-1H-pyrazol-4-yl)-5-(pyridin-2-yl)-1,3,4-thiadiazole-2-carboxamide]	< 25	–
> 10	O=C(Nc1cnn([C@H]2CCc3ccccc32)c1)c1cc(-c2ccco2)on1 [Compound 150, (S)—N-(1-(2,3-dihydro-1H-inden-1-yl)-1H-pyrazol-4-yl)-5-(furan-2-yl)isoxazole-3-carboxamide]	< 25	–
> 10	Cc1c(C(=O)Nc2cnn(Cc3ccc(C(F)(F)F)cc3C(F)(F)F)c2)noc1-c1ccccn1 [Compound 135, N-(1-(2,4-bis(trifluoromethyl)benzyl)-1H-pyrazol-4-yl)-4-methyl-5-(pyridin-2-yl)isoxazole-3-carboxamide]	25 to 50	–
> 10	C[C@H](c1ccc(C(F)(F)F)cc1C(F)(F)F)n1cc(NC(=O)/C=C/c2ccco2)cn1 [Compound 85, (R,E)—N-(1-(1-(2,4-bis(trifluoromethyl)phenyl)ethyl)-1H-pyrazol-4-yl)-3-(furan-2-yl)acrylamide]	< 25	–
> 10	C[C@@H](c1ccc(C(F)(F)F)cc1F)n1cc(NC(=O)c2cc(-c3ccccn3)on2)cn1 [Compound 109, (S)—N-(1-(1-(2-fluoro-4-(trifluoromethyl)phenyl)ethyl)-1H-pyrazol-4-yl)-5-(pyridine-2-yl)isoxazole-3-carboxamide]	< 25	–
–	Ceapin-A8 [reference compound]	–	Inh. ATF6-Luc @ 1 μM [%] [4]: + (+ refers to <25% inhibition at 1 μM); IC50 [5]: > 10 µM
> 10	Cc1nn(-c2ccc(C(F)(F)F)cc2C(F)(F)F)cc1NC(=O)/C=C/c1ccco1 [Compound 87, (E)—N-(1-(2,4-bis(trifluoromethyl)phenyl)-3-methyl-1H-pyrazol-4-yl)-3-(furan-2-yl)acrylamide]	< 25	–
> 10	CC(=O)c1cc(C(=O)Nc2cnn(Cc3ccc(C(F)(F)F)cc3C(F)(F)F)c2)no1 [Compound 3, 5-acetyl-N-(1-(2,4-bis(trifluoromethyl)benzyl)-1H-pyrazol-4-yl)isoxazole-3-carboxamide]	< 25	–
> 10	Cc1nn(-c2ccc(C(F)(F)F)cc2C(F)(F)F)cc1NC(=O)c1cc(-c2ccccn2)on1 [Compound 90, N-(1-(2,4-bis(trifluoromethyl)phenyl)-3-methyl-1H-pyrazol-4-yl)-5-(pyridin-2-yl)isoxazole-3-carboxamide]	< 25	–
> 10	C[C@H](c1ccc(C(F)(F)F)cc1C(F)(F)F)n1cc(NC(=O)c2cc(-c3cccnc3)on2)cn1 [Compound 36, (R)-N-(1-(1-(2,4-bis(trifluoromethyl)phenyl)ethyl)-1H-pyrazol-4-yl)-5-(pyridin-3-yl)isoxazole-3-carboxamide]	< 25	–
–	C[C@@H](c1ccc(C(F)(F)F)cc1C(F)(F)F)n1cc(NC(=O)c2nnc(-c3cnccn3)s2)cn1 [Compound 153]	–	inhibition at 1 µM (Homo sapiens, U2OS, 8 h, read-out: Inh. ATF6-Luc @ 1 μM [%], 1 μM test compound, thapsigargin-induced ER stress, U2-OS ATF6 luc reporter cells, 8 hr): < 25%; IC50 (Homo sapiens, U2OS, read-out: IC50 ATF6-Luc reporter [μM], dose-response 30 μM to 1 nM, thapsigargin-induced ER stress, U2-OS ATF6 luc reporter cells): > 10 µM
> 10	C[C@@H](c1ccc(C(F)(F)F)cc1C(F)(F)F)n1cc(NC(=O)c2nnc(-c3ccncn3)s2)cn1 [Compound 157, (S)—N-(1-(1-(2,4-bis(trifluoromethyl)phenyl)ethyl)-1H-pyrazol-4-yl)-5-(pyrimidin-4-yl)-1,3,4-thiadiazole-2-carboxamide]	< 25	–
> 10	CC(c1ccc(C(F)(F)F)cc1C(F)(F)F)n1cc(NC(=O)c2cc(-c3ccccn3)n(C)n2)cn1 (stereo not shown) [Compound 113, N-(1-(1-(2,4-bis(trifluoromethyl)phenyl)ethyl)-1H-pyrazol-4-yl)-1-methyl-5-(pyridin-2-yl)-1H-pyrazole-3-carboxamide]	< 25	–
> 10	O=C(Nc1cnn(Cc2ccc(C(F)(F)F)cc2C(F)(F)F)c1)c1cncc(-c2ccc(F)cc2)c1 [Compound 20, N-(1-(2,4-bis(trifluoromethyl)benzyl)-1H-pyrazol-4-yl)-5-(4 fluorophenyl)nicotinamide]	< 25	–
–	CC(c1ccc(C(F)(F)F)cc1C(F)(F)F)n1cc(NC(=O)c2cc(-c3ccco3)on2)cn1 (single isomer, unassigned) [“Enantiomer B” of Example S6, N-(1-(1-(2,4-bis(trifluoromethyl)phenyl)ethyl)-1H-pyrazol-4-yl)-5-(furan-2-yl)isoxazole-3-carboxamide]	–	IC50: > 10 µM; Inh. ATF6-Luc @ 1 μM [%] (8 h, 1 µM): + (+ refers to <25% inhibition at 1 μM)
–	Ceapin-A4 [reference compound]	–	Inh. ATF6-Luc @ 1 μM [%] [4]: + (+ refers to <25% inhibition at 1 μM); IC50 [5]: > 10 µM
> 10	C[C@@H](c1ccc(C(F)(F)F)cc1C(F)(F)F)n1cc(NC(=O)c2cnccn2)cn1 [Compound 141, (S)—N-(1-(1-(2,4-bis(trifluoromethyl)phenyl)ethyl)-1H-pyrazol-4-yl)pyrazine-2-carboxamide]	< 25	–
> 10	C[C@@H](c1ccc(C(F)(F)F)cc1C(F)(F)F)n1cc(NC(=O)c2nnc(-c3ccccn3)o2)cn1 [Compound 134]	< 25	–

Compound	IC50 [2] [µM]	inhibition at 1 µM [1] [%]	other results
CC(c1ccc(C(F)(F)F)cc1C(F)(F)F)n1cc(NC(=O)c2ccc(-c3ccccn3)cn2)cn1 (stereo not shown) [Compound 82, N-(1-(1-(2,4-bis(trifluoromethyl)phenyl)ethyl)-1H-pyrazol-4-yl)-[2,3′-bipyridine]-6′-carboxamide]	> 10	–	inhibition at 1 µM [3]: < 25%
CC(c1ccc(C(F)(F)F)cc1C(F)(F)F)n1cc(NC(=O)c2cc(-c3ccccn3)ccn2)cn1 (stereo not shown) [Compound 81, N-(1-(1-(2,4-bis(trifluoromethyl)phenyl)ethyl)-1H-pyrazol-4-yl)-[2,4′-bipyridine]-2′-carboxamide]	> 10	–	inhibition at 1 µM [3]: < 25%

From patent US20240124434A1, “ATF6 INHIBITORS AND USES THEREOF” (Altos Labs, Inc., priority 2018, published 2024)
